Experimental data reported in patent US20250154140A1 (Sunnybrook Research Institute, priority 2022, published 2025).

biological target: T1, FL EGFR (Homo sapiens, UniProt P00533); assay: EGFR kinase assay (ADP-Glo); assay type: biochemical; details: not given
T1 construct: kinase domain of EGFR (amino acids 695-1210); purchased Promega V3831
Procedure: A peptide containing the kinase domain of EGFR (amino acids 695-1210) was used to assess the inhibitory potency of the inhibitors. The ADP-Glo kinase assay (Promega V9101), and the EGFR kinase enzyme (Promega V3831) were used according to the supplier's instructions. Briefly, […] reactions were assembled in wells of a 384 well plate as follows: 5 μL of the kinase reaction, 5 μL of the ADP depletion reagent, and 10 μL of the luciferase reagent. For the kinase reaction: 1 μL of the inhibitor (dissolved in DMSO) was mixed with 2 μL EGFR peptide ([…]), 1 μL of a poly Glu4Tyr1 peptide (0.2 μg/μL), 1 μL reaction buffer, and 1 μL of ATP (final concentration of 5 μM). The kinase reaction was incubated at room temperature for 1 hour. 5 μL of the ATP depletion/kinase terminating reagent was mixed into each well and incubated at room temperature for 40 minutes. 10 μL of the kinase detection reagent containing luciferase was mixed into each well and incubated at room temperature for 30 minutes for bioluminescent detection of ADP produced from the kinase reaction in step 1. Bioluminescent signal was detected in a Tecan Safire^2 with a black plug covering the excitation filter, and an empty emission filter. The integration time was increased to […] to detect enough luminescence per reading.

T1 sequence (P00533 695-1210): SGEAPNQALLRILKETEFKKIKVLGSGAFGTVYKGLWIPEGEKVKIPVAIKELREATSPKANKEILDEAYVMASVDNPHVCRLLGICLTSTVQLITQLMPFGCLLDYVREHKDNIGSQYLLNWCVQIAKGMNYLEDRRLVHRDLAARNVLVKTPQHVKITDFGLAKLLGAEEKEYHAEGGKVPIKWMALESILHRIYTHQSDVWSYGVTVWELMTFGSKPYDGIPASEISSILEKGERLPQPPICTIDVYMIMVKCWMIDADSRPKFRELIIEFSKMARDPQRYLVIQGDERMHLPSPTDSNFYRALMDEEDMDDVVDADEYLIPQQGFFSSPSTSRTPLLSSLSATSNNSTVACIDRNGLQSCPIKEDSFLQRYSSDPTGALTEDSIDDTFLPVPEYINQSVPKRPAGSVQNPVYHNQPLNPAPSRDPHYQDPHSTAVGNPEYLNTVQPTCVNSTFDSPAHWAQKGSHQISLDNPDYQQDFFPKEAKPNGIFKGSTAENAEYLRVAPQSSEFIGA

| Structure (SMILES) | IC50 [µM] |
| --- | --- |
| COc1cc2ccnc(Nc3ccc(F)c(Cl)c3)c2cc1NC(=O)CCCN1CCCCC1 [Compound 1-1, N-(1-((3-chloro-4-fluorophenyl)amino)-6-methoxyisoquinolin-7-yl)-4-(piperidin-1-yl)butanamide] | > 10 |

biological target: BAX (Homo sapiens, UniProt Q07812); assay: SMAC mCherry assay in permeabilized Bax-/- Bak-/- BMK cells with recombinant Bax and cBid; assay type: cell-based, mouse; set-up: made in house; host or cells: Escherichia coli BL21-AI; details: 20 nM Bax, 0.5 nM cBid, 60-80 minutes; read-out: SMAC mCherry I.D IC50
Sequence (Q07812 whole entry, the tested form may be a part): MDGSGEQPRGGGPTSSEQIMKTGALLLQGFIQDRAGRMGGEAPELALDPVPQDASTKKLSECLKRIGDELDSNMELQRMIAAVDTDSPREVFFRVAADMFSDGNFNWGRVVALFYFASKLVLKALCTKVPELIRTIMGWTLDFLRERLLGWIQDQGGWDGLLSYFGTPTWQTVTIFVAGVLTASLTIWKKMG
Procedure: Bax−/− Bak−/− double-knockout Baby Mouse Kidney (BMK) cells stably expressing a SMAC-(1-56)-mCherry fusion protein were cultured in DMEM complete (DMEM supplemented with 10% FBS and 1× Penicillin-Streptomycin) in 10 cm diameter tissue-culture treated dishes at 37° C. in a humidified incubator with 5% CO2 in air. Cells were washed with PBS, incubated with 1×Trypsin and resuspended in DMEM complete. Detached cells were seeded at 6000 cells per well in 50 uL DMEM complete into a 384 well Perkin-Elmer Phenoplate, incubated at room-temperature for 30 minutes followed by incubation overnight at 37° C. in a humidified incubator with 5% CO2 in air. Recombinant Bax and recombinant cBid were quickly thawed between fingers and 25 mM compound stocks in DMSO were thawed at room temperature. An 8 point titration curve of each compound was created in a 384-well source plate containing Trehalose-Hepes Buffer (THB, 135 mM trehalose, 50 mM KCl, 10 mM HEPES-KOH pH 7.4, 5 mM succinate, 20 uM EDTA, 20 uM EGTA, 0.1% BSA) supplemented with 1/1000 DRAQ5, 0.0025% digitonin, 20 nM Bax and 0.5 nM cBid. The source plate also contained control wells with THB supplemented with 1/1000 DRAQ5, 0.0025% digitonin plus 20 nM Bax (negative control) or 20 nM Bax and 0.5 nM cBid (positive control). Using the Vantage automated liquid handler, DMEM complete media was removed from the cells growing in the 384 well Phenoplate. The cells were washed 2× with 30 uL THB and then 25 uL from the 384 well source plate containing THB proteins and compounds was transferred to the cells growing in the 384 well plate. The cells were incubated for 60-80 minutes at 37 C in a humidified incubator with 5% CO2 in air and then imaged on the Opera Phenix Microscope. Two image channels were acquired: 1) DRAQ5 channel, to visualize nuclei and aid in cell segmentation and 2) SMAC-mCherry channel to visualize mitochondria that retain SMAC-mCherry. Data was processed using PerkinElmer Harmony software where the cells were segmented using the DRAQ5 channel and the mean intensity of SMAC-mCherry for each cell was calculated. The single-cell lobject level data was exported and then analyzed using R code. A per cell SMAC-mCherry intensity cutoff was calculated as 1.33 times the mean per cell SMAC-mCherry intensity of the THB+Bax control. Cells with a SMAC-mCherry intensity below or equal to the cutoff were scored as “released”. The percentage SMAC-mCherry release was calculated as the number of cells scored as “released” divided by the total amount of cells multiplied by 100. Dose-response curves were fit to a 4-parameter log-logistic model to determine the IC50 value for each compound.

| Structure (SMILES) | IC50 [µM] |
| --- | --- |
| COc1cc2ccnc(Nc3ccc(F)c(Cl)c3)c2cc1NC(=O)CCCN1CCCCC1 [Compound 1-1, N-(1-((3-chloro-4-fluorophenyl)amino)-6-methoxyisoquinolin-7-yl)-4-(piperidin-1-yl)butanamide] | 0.1 to 10 |
| O=C(CCCN1CCCCC1)Nc1ccc2ccnc(Nc3cc(Cl)c(F)c(Cl)c3)c2c1 [Compound 1-36, N-(1-((3,5-dichloro-4-fluorophenyl)amino)isoquinolin-7-yl)-4-(piperidin-1-yl)butanamide] | 0.1 to 10 |
| O=C(CCCN1CCCCC1)Nc1ccc2ccnc(Nc3cc(F)c(Cl)c(Cl)c3)c2c1 [Compound 1-37, N-(1-((3,4-dichloro-5-fluorophenyl)amino)isoquinolin-7-yl)-4-(piperidin-1-yl)butanamide] | 0.1 to 10 |
| O=C(CCCN1CCCCC1)Nc1ccc2ccnc(Nc3cc(Cl)c(Cl)cc3F)c2c1 [Compound 1-38, N-(1-((4,5-dichloro-2-fluorophenyl)amino)isoquinolin-7-yl)-4-(piperidin-1-yl)butanamide] | 0.1 to 10 |
| O=C(CCCN1CCCCC1)Nc1ccc2ccnc(Nc3cccc(Cl)c3F)c2c1 [Compound 1-39, N-(1-((3-chloro-2-fluorophenyl)amino)isoquinolin-7-yl)-4-(piperidin-1-yl)butanamide] | 0.1 to 10 |
| O=C(CCCN1CCCCC1)Nc1ccc2ccnc(Nc3ccc(F)c(Cl)c3F)c2c1 [Compound 1-40, N-(1-((3-chloro-2,4-difluorophenyl)amino)isoquinolin-7-yl)-4-(piperidin-1-yl)butanamide] | 0.1 to 10 |
| N#Cc1cccc(Nc2nccc3ccc(NC(=O)CCCN4CCCCC4)cc23)c1 [Compound 1-41, N-(1-((3-cyanophenyl)amino)isoquinolin-7-yl)-4-(piperidin-1-yl)butanamide] | 11 to 50 |
| COc1cc2ccnc(Nc3ccc(F)c(Cl)c3)c2cc1NC(=O)CCN1CCCC1 [Compound 1-42, N-(1-((3-chloro-4-fluorophenyl)amino)-6-methoxyisoquinolin-7-yl)-3-(pyrrolidin-1-yl)propanamide] | 11 to 50 |
| COc1cc2ccnc(Nc3ccc(F)cc3Cl)c2cc1NC(=O)CCCN1CCCCC1 [Compound I-19, N-(1-((2-chloro-4-fluorophenyl)amino)-6-methoxyisoquinolin-7-yl)-4-(piperidin-1-yl)butanamide] | 11 to 50 |
